In patent US20180084784A1, “METHODS AND COMPOSITIONS FOR CONTROLLING FUNGUS AND FUNGAL SPORES AND IMPROVING PLANT QUALITY” (BAYER CROPSCIENCE LP, priority 2016, published 2018):
Read-outs that look alike come from different tables or passages of the source.

Experiments:
[1] = tested on: Pythium aphanidermatum zoospores
Description: Tests were conducted on fescue leaf blades. […] Two agar plugs containing Pythium aphanidermatum mycelium were placed in the jar containing the fescue leaves and allowed to incubate for 5 days.
A 1.0 ml aliquot was removed from each treatment and streaked onto potato dextrose agar. […] After five days the plates were examined for Pythium growth.

[2] = tested on: Pythium aphanidermatum zoospores; experiment: Example 3: hydrogen peroxide alone and hydrolase enzyme alone, 12 days incubation; type: cell-based
Description: Tests were conducted on fescue leaf blades. […] Two agar plugs containing Pythium aphanidermatum mycelium were placed in the jar containing the fescue leaves and allowed to incubate for 12 days. Ten jars were used in total. […] Each of these jars was subject to the following hydrogen peroxide treatments: […] The remaining five jars were used for testing the effect of hydrolase enzyme alone. Each of these jars was subject to the following enzyme treatments: […] (2) 0.016% enzyme v/v concentration; (3) 0.0016% enzyme v/v concentration; […]

[3] = tested on: Pythium aphanidermatum zoospores; experiment: Example 4: hydrogen peroxide alone and enzyme alone, 8 days incubation; type: cell-based
Description: Tests were conducted on fescue leaf blades. […] Eleven jars were used in total. […] The remaining six jars were used for testing the effect of hydrolase enzyme alone. Each of these jars was subject to the following enzyme treatments: (1) untreated; (2) 0.16% enzyme v/v concentration; (3) 0.088% enzyme v/v concentration; […] (5) 0.0142% enzyme v/v concentration; and (6) 0.0124% enzyme v/v concentration.

[4] = tested on: Pythium aphanidermatum zoospores; experiment: Example 5: enzyme and hydrogen peroxide, alone and combined; type: cell-based
Description: (§1) Tests were conducted on fescue leaf blades. […] Two agar plugs containing Pythium aphanidermatum mycelium were placed in the jar containing the fescue leaves and allowed to incubate for 7 days.
(§2) A 1.0 ml aliquot was removed from each treatment and streaked onto potato dextrose agar.

[5] = tested on: Pythium aphanidermatum zoospores; experiment: Example 6: enzyme and hydrogen peroxide, alone and combined; type: cell-based
Description: as §1, §2

[6] = tested on: Pythium aphanidermatum zoospores; experiment: Example 8: enzyme and hydrogen peroxide, alone and combined; type: cell-based
Description: as §1, §2

[7] = tested on: Pythium aphanidermatum zoospores; experiment: Example 9: enzyme and hydrogen peroxide, alone and combined; type: cell-based
Description: as §1
A 1.0 mL aliquot was removed from each treatment and streaked onto potato dextrose agar.

[8] = tested on: Pythium aphanidermatum zoospores; experiment: Example 7: enzyme and hydrogen peroxide, confirmation of Example 6
Description: Tests were conducted on fescue leaf blades. Five one-inch long fescue leaf blades were placed in 100 ml water in a 250 ml jar and sterilized for 2 consecutive days for 20 min. Two agar plugs containing Pythium aphanidermatum mycelium were placed in the jar containing the fescue leaves and allowed to incubate for 7 days.
A 1.0 ml aliquot was removed from each treatment and streaked onto potato dextrose agar. […] After three days the plates were examined for Pythium growth.

[9] = 0.0003% hydrogen peroxide v/v concentration
[10] = 0.003% hydrogen peroxide v/v concentration
[11] = 0.03% hydrogen peroxide v/v concentration
[12] = 0.006% hydrogen peroxide v/v concentration
[13] = 0.012% hydrogen peroxide v/v concentration
[14] = 0.014% hydrogen peroxide v/v concentration
[15] = 0.016% hydrogen peroxide v/v concentration
[16] = 0.018% hydrogen peroxide v/v concentration
[17] = 0.02% hydrogen peroxide v/v concentration

In the case of `OO` [hydrogen peroxide], the “% Reduction of Pythium” value [1, 9] is reported as 0%, the “Number of plates (4 reps) with Pythium growth after 5 days” value (“Number of plates (4 reps) … after 5 days” for short) [1, 9] is reported as 4 and the “% Reduction of Pythium” value [1, 10] is reported as 0%. For the same compound, the “Number of plates (4 reps) … after 5 days” value [1, 10] was 4, the “% Reduction of Pythium” value [1, 11] was 75% and the “Number of plates (4 reps) … after 5 days” value [1, 11] was 1. The “% Reduction of Pythium” value ([1]; 0.3% hydrogen peroxide v/v concentration) was 100%, the “% Reduction of Pythium” value ([1]; 1.5% hydrogen peroxide v/v concentration) was 100% and the “% of Potato Dextrose Sugar Agar Plate Covered with Pythium” value [2, 10] was 100%. The “Number of plates (4 reps) with Pythium growth after 3 days” value (“Number of plates (4 reps) … after 3 days” for short) [2, 10] was 4, the “% of Potato Dextrose Sugar Agar Plate Covered with Pythium” value [2, 12] was 50-90% and the “Number of plates (4 reps) … after 3 days” value [2, 12] was 4. For the same compound, the “% of Potato Dextrose Sugar Agar Plate Covered with Pythium” value [2, 13] was less than 50%, the “Number of plates (4 reps) … after 3 days” value [2, 13] was 4 and the “% of Potato Dextrose Sugar Agar Plate Covered with Pythium” value [2, 11] was 0%. The “Number of plates (4 reps) … after 3 days” value [2, 11] was 0, the “Pythium growth on plates” value ([2]; all tested concentrations of hydrogen peroxide except 0.03% v/v) was “grew on all plates” and the “% of Potato Dextrose Sugar Agar Plate Covered with Pythium” value [3, 13] was 36.25%. The “% of Potato Dextrose Sugar Agar Plate Covered with Pythium” value [3, 14] was 60%, the “% of Potato Dextrose Sugar Agar Plate Covered with Pythium” value [3, 15] was 0% and the “% of Potato Dextrose Sugar Agar Plate Covered with Pythium” value [3, 16] was 0%. For the same compound, the “% of Potato Dextrose Sugar Agar Plate Covered with Pythium” value [4, 10] was 100%, the “Number of plates (4 reps) … after 3 days” value [4, 10] was 4 and the “% of Potato Dextrose Sugar Agar Plate Covered with Pythium” value [4, 14] was 71.25%. The “Number of plates (4 reps) … after 3 days” value [4, 14] was 4, the “% of Potato Dextrose Sugar Agar Plate Covered with Pythium” value [5, 14] was 17.5% and the “Number of plates (4 reps) … after 3 days” value [5, 14] was 1. The “% of Potato Dextrose Sugar Agar Plate Covered with Pythium” value [5, 15] was 10%, the “Number of plates (4 reps) … after 3 days” value [5, 15] was 1 and the “% of Potato Dextrose Sugar Agar Plate Covered with Pythium” value [5, 16] was 17.5%. For the same compound, the “Number of plates (4 reps) … after 3 days” value [5, 16] was 1, the “% of Potato Dextrose Sugar Agar Plate Covered with Pythium” value [6, 14] was 90% and the “Number of plates (4 reps) … after 3 days” value [6, 14] was 4. The “% of Potato Dextrose Sugar Agar Plate Covered with Pythium” value [6, 17] was 56.3%, the “Number of plates (4 reps) … after 3 days” value [6, 17] was 4 and the “% of Potato Dextrose Sugar Agar Plate Covered with Pythium” value [7, 14] was 100%. The “Number of plates (4 reps) … after 3 days” value [7, 14] was 4, the “% of Potato Dextrose Sugar Agar Plate Covered with Pythium” value [7, 15] was 63.75% and the “Number of plates (4 reps) … after 3 days” value [7, 15] was 4. For the same compound, the “% of Potato Dextrose Sugar Agar Plate Covered with Pythium” value [7, 16] was 91.25%, the “Number of plates (4 reps) … after 3 days” value [7, 16] was 4 and the “% of Potato Dextrose Sugar Agar Plate Covered with Pythium” value [7, 17] was 25%. For the same compound, the “Number of plates (4 reps) … after 3 days” value [7, 17] was 4, the “% of Potato Dextrose Sugar Agar Plate Covered with Pythium” value [8, 14] was 72.5% and the “Number of plates (4 reps) … after 3 days” value [8, 14] was 4. For the same compound, the “% of Potato Dextrose Sugar Agar Plate Covered with Pythium” value [8, 15] was 38.8%, the “Number of plates (4 reps) … after 3 days” value [8, 15] was 4 and the “% of Potato Dextrose Sugar Agar Plate Covered with Pythium” value [8, 16] was 85.8%. The “Number of plates (4 reps) … after 3 days” value [8, 16] was 4.
